According to patent US20050250709A1, “Anti-neoplastic agents, combination therapies and related methods” (Bionaut Pharmaceuticals, priority 2003, published 2005):
Where a name gives a salt, the structure may show the parent alone.

Key:
[1] = system: EGF-responsive gene expression; assay: EGF-responsive gene expression in recovered reporter cell lines; format: cell-based
Description: (§1) Cancer cell lines (Panc1, for pancreatic cancer, and A549 for non-small cell lung carcinoma) were transfected with the construct depicted in FIG. 1. The retroviral vector contained a […] gene (a negative selection marker), a zeocin resistance marker (a positive selection marker) and a gene encoding beta-galactosidase “β-gal”, as a reporter gene.
Cells were grown to a significant cell density and exposed to zeocin, so as to select for cells expressing the zeocin marker in the presence of high levels of extracellular signaling. Cells were also exposed to a growth factor, such as EGF, insulin or IGF, although in some instances, the growth factor had only minor effects on gene expression compared to the generalized effect of extracellular signaling. The selected cell cultures were greatly depleted of cells by zeocin treatment, as the vast majority of cells were eliminated by the zeocin. […] Under these conditions, cells were exposed to an agent such as ganciclovir that causes lethality in TK+ cells. This selection step eliminated those cells containing a nucleic acid construct that is expressed at significant levels even in low extracellular signaling conditions. The resulting cells were then used for further study.
FIGS. 3 through 9 depict the results from a series of experiments characterizing the recovered cell lines. […]

DU-145/Prostate = assay: anti-proliferative effect, DU-145 prostate cancer cell line; format: cell-based; settings: Homo sapiens
From the text: (§2) The inhibition of reporter activity was later correlated with an anti-proliferative effect in representative colon, lung, prostate, cervical, renal, uterine, breast, and pancreatic cancer cell lines as shown in table 1.

A549/Lung = assay: anti-proliferative effect, A549 lung cancer cell line; format: cell-based; settings: Homo sapiens
From the text: as §2

HT-29/Colon = assay: anti-proliferative effect, HT-29 colon cancer cell line; format: cell-based; settings: Homo sapiens
From the text: as §2
The ouabain concentration required to achieve an antiproliferative effect in cells of the HT29 colon cancer cell line (FIG. 20) is decreased five-fold in the presence of bicalutamide (Casodex).

MES-SA-DX5/Uterine = assay: anti-proliferative effect, MES-SA-DX5 uterine cancer cell line; format: cell-based; settings: Homo sapiens
From the text: as §2

MES-SA/Uterine = assay: anti-proliferative effect, MES-SA uterine cancer cell line; format: cell-based; settings: Homo sapiens
From the text: as §2

MCF-7/Breast = assay: anti-proliferative effect, MCF-7 breast cancer cell line; format: cell-based; settings: Homo sapiens, MCF7
From the text: as §2

Caki-1/Renal = assay: anti-proliferative effect, Caki-1 renal cancer cell line; format: cell-based; settings: Homo sapiens
From the text: as §2

[2] = system: EGF, HIF responsive cell line (HIF-responsive reporter gene); assay: reporter gene assay in EGF, HIF responsive cancer cell line; format: cell-based; settings: for effect on regulated reporter gene expression (screen): single agents, screen of thousands of compounds
Description: as §1
Cells were grown to a significant cell density and exposed to zeocin, so as to select for cells expressing the zeocin marker in the presence of high levels of extracellular signaling. […] Under these conditions, cells were exposed to an agent such as ganciclovir that causes lethality in TK+ cells. This selection step eliminated those cells containing a nucleic acid construct that is expressed at significant levels even in low extracellular signaling conditions. The resulting cells were then used for further study.
An EGF, HIF responsive cell line was screened for compounds affecting the regulated gene expression. Thousands of compounds were screened.

SK-MES/Lung = assay: anti-proliferative effect, SK-MES lung cancer cell line; format: cell-based
From the text: as §2

Panc-1 = assay: anti-proliferative effect, Panc-1 pancreatic cancer cell line; format: cell-based; settings: Homo sapiens; Panc-1, anti-proliferative
From the text: as §2

LnCap/Prostate = assay: anti-proliferative effect, LnCap prostate cancer cell line; format: cell-based; settings: Homo sapiens
From the text: as §2

C-33A/Cervical = assay: anti-proliferative effect, C-33A cervical cancer cell line; format: cell-based; settings: Homo sapiens
From the text: as §2

HIF-2α protein = assay: level of HIF-2α protein in cancer cells; format: cell-based
PC3/Prostate = assay: anti-proliferative effect, PC3 prostate cancer cell line; format: cell-based
From the text: as §2

HCT-116/Colon = assay: anti-proliferative effect, HCT-116 colon cancer cell line; format: cell-based; settings: Homo sapiens
From the text: as §2

[3] = system: several different cancer cell lines; assay: proliferation of cancer cell lines (several lines, summary); format: cell-based; settings: range over cell lines, read-out: IC50 across several different cancer cell lines
Description: The IC50 measured for ouabain across several different cancer cell lines ranged from about 80 nM to about 300 nM. The concentration at which a cardiac glycoside is effective as part of an antiproliferative treatment may be further decreased by combination with an additional agent that negatively regulates HIF-responsive genes, such as a redox effector or a steroid signal modulator. For example, as shown herein, the concentration at which a cardiac glycoside (ouabain) is effective for inhibiting proliferation of cancer cells is decreased 5-fold by combination with a steroid signal modulator (Casodex). Therefore, in certain embodiments, the invention provides combination therapies of cardiac glycosides with, for example, steroid signal modulators and/or redox effectors. Additionally, cardiac glycosides may be combined with radiation therapy, taking advantage of the radiosensitizing effect that many cardiac glycosides have.

**Q.** For `COc1cc2ncnc(Nc3ccc(F)c(Cl)c3)c2cc1OCCCN1CCOCC1` [Iressa], which EGF-responsive gene expression [1] is on record?
**A.** Its EGF-responsive gene expression is “inhibited”.

**Q.** For `O=C(Nc1ccc([N+](=O)[O-])cc1Cl)c1cc(Cl)ccc1O` [Niclosamide, niclosamide], which IC50 (DU-145/Prostate) is on record?
**A.** The IC50 was 5000 nM.

**Q.** And the IC50 (A549/Lung)?
**A.** Its IC50 is 1500 nM.

**Q.** And the serum half-life (serum half-life)?
**A.** The serum half-life was “short”.

**Q.** What about the IC50 (HT-29/Colon) of the same compound?
**A.** Its IC50 is 8000 nM.

**Q.** What about the IC50 (MES-SA-DX5/Uterine) of the same compound?
**A.** The IC50 was 6000 nM.

**Q.** What about the IC50 (MES-SA/Uterine) of the same compound?
**A.** Its IC50 is 9000 nM.

**Q.** And the IC50 (MCF-7/Breast)?
**A.** The IC50 was 2500 nM.

**Q.** What about the IC50 (Caki-1/Renal) of the same compound?
**A.** Its IC50 is 1500 nM.

**Q.** And the “effect on regulated reporter gene expression (screen)” value (“effect” below) [2]?
**A.** The value was “effective”.

**Q.** And the IC50 (SK-MES/Lung)?
**A.** The IC50 was 2000 nM.

**Q.** What about the IC50 (Panc-1) of the same compound?
**A.** Its IC50 is 5000 nM.

**Q.** And the IC50 (LnCap/Prostate)?
**A.** The IC50 was 2000 nM.

**Q.** And the IC50 (C-33A/Cervical)?
**A.** The IC50 was 5000 nM.

**Q.** And the “level of HIF-2α protein” value (HIF-2α protein)?
**A.** The value was “decrease”.

**Q.** And the IC50 (PC3/Prostate)?
**A.** The IC50 was 5000 nM.

**Q.** And the IC50 (HCT-116/Colon)?
**A.** The IC50 was 800 nM.

**Q.** With `C[C@@H]1O[C@@H](O[C@H]2C[C@@H](O)[C@]3(CO)[C@H]4[C@H](O)C[C@]5(C)[C@@H](C6=CC(=O)OC6)CC[C@]5(O)[C@@H]4CC[C@]3(O)C2)[C@H](O)[C@H](O)[C@H]1O` [Ouabain, ouabain] as the compound, how does the IC50 (DU-145/Prostate) read?
**A.** Its IC50 is 300 nM.

**Q.** And the IC50 (A549/Lung)?
**A.** The IC50 was 300 nM.

**Q.** What about the IC50 (HT-29/Colon) of the same compound?
**A.** The IC50 was > 800 nM.

**Q.** And the IC50 (MES-SA-DX5/Uterine)?
**A.** Its IC50 is 80 nM.

**Q.** What about the IC50 [3] of the same compound?
**A.** The IC50 was 80 to 300 nM.

**Q.** And the IC50 (MES-SA/Uterine)?
**A.** The IC50 was 80 nM.

**Q.** And the IC50 (MCF-7/Breast)?
**A.** Its IC50 is 100 nM.

**Q.** What about the IC50 (Caki-1/Renal) of the same compound?
**A.** Its IC50 is 150 nM.

**Q.** And the “required dose for inhibition of reporter activity relative to cardiotonic dose” value [2]?
**A.** Its value is “well below the dose required for ouabain as a cardiotonic agent”.

**Q.** And the “effect” value [2]?
**A.** Its value is “effective”.

**Q.** And the IC50 (SK-MES/Lung)?
**A.** Its IC50 is 100 nM.

**Q.** What about the IC50 (Panc-1) of the same compound?
**A.** The IC50 was 150 nM.

**Q.** And the IC50 (LnCap/Prostate)?
**A.** The IC50 was 150 nM.

**Q.** And the IC50 (C-33A/Cervical)?
**A.** The IC50 was 100 nM.

**Q.** And the IC50 (PC3/Prostate)?
**A.** The IC50 was 150 nM.

**Q.** What about the IC50 (HCT-116/Colon) of the same compound?
**A.** Its IC50 is 150 nM.

**Q.** For `CCCCC(CC)CNC(=N)NC(=N)NCCCCCCNC(=N)NC(=N)NCC(CC)CCCC` (stereo not drawn) [alexidine dihydrochloride], which “effect” value [2] is on record?
**A.** The value was “effective”.

**Q.** Which “effect” value [2] does the source give for `CC(C)/N=c1\cc2n(-c3ccc(Cl)cc3)c3ccccc3nc-2cc1Nc1ccc(Cl)cc1` [clofazimine] here?
**A.** The value was “effective”.

**Q.** For `Clc1ccccc1C(c1ccccc1)(c1ccccc1)n1ccnc1` [clotrimazole], which “effect” value [2] is on record?
**A.** Its value is “effective”.

**Q.** With `C/C=C(/C(=C/C)c1ccc(O)cc1)c1ccc(O)cc1` [dienestrol] as the compound, how does the “effect” value [2] read?
**A.** Its value is “effective”.

**Q.** With `CC/C(=C(/CC)c1ccc(O)cc1)c1ccc(O)cc1` [diethylstilbestrol] as the compound, how does the “effect” value [2] read?
**A.** The value was “effective”.

**Q.** For `C[C@]12CC[C@H](O)C[C@H]1CC[C@@H]1[C@@H]2CC[C@]2(C)[C@@H](C3=CC(=O)OC3)CC[C@]12O` [digitoxigenin], which “effect” value [2] is on record?
**A.** The value was “effective”.

**Q.** With `C[C@H]1O[C@@H](O[C@H]2[C@@H](O)C[C@H](O[C@H]3[C@@H](O)C[C@H](O[C@H]4CC[C@@]5(C)[C@H](CC[C@@H]6[C@@H]5C[C@@H](O)[C@]5(C)[C@@H](C7=CC(=O)OC7)CC[C@]65O)C4)O[C@@H]3C)O[C@@H]2C)C[C@H](O)[C@@H]1O` [digoxin] as the compound, how does the “effect” value [2] read?
**A.** The value was “effective”.

**Q.** Which “effect” value [2] does the source give for `Clc1ccc(COC(Cn2ccnc2)c2ccc(Cl)cc2Cl)cc1` (stereo not drawn) [econazole nitrate] here?
**A.** The value was “effective”.

**Q.** Which “effect” value [2] does the source give for `CC(=O)O[C@H]1C[C@H](O[C@H]2[C@@H](O)C[C@H](O[C@H]3[C@@H](O)C[C@H](O[C@H]4CC[C@@]5(C)[C@H](CC[C@@H]6[C@@H]5C[C@@H](O)[C@]5(C)[C@@H](C7=CC(=O)OC7)CC[C@]65O)C4)O[C@@H]3C)O[C@@H]2C)O[C@H](C)[C@H]1O[C@@H]1O[C@H](CO)[C@@H](O)[C@H](O)[C@H]1O` [lanatoside C] here?
**A.** Its value is “effective”.

**Q.** With `OC(c1cc(C(F)(F)F)nc2c(C(F)(F)F)cccc12)C1CCCCN1` (stereo not drawn) [mefloquine hydrochloride] as the compound, how does the “effect” value [2] read?
**A.** The value was “effective”.

**Q.** For `CC1=CC(=O)c2ccccc2C1=O` [menadione], which “effect” value [2] is on record?
**A.** The value was “effective”.

**Q.** For `CCCC(C(=O)OCCN(CC)CC)(c1ccccc1)c1ccccc1` [proadifen hydrochloride], which “effect” value [2] is on record?
**A.** Its value is “effective”.
